From ChEMBL document CHEMBL4507268 (2021)

Tests used:
Conditions in all cases: Compound concentration 1000.0 nM
[1] = target: Death-associated protein kinase 1 (Homo sapiens) (UniProt P53355)
[2] = test system: Tyrosine-protein kinase ABL1 (Homo sapiens), P00519 [Q252H]
[3] = target: T1, Phosphatidylinositol 3-kinase C2 domain-containing subunit gamma (Homo sapiens) (UniProt O75747)
T1 sequence (whole entry): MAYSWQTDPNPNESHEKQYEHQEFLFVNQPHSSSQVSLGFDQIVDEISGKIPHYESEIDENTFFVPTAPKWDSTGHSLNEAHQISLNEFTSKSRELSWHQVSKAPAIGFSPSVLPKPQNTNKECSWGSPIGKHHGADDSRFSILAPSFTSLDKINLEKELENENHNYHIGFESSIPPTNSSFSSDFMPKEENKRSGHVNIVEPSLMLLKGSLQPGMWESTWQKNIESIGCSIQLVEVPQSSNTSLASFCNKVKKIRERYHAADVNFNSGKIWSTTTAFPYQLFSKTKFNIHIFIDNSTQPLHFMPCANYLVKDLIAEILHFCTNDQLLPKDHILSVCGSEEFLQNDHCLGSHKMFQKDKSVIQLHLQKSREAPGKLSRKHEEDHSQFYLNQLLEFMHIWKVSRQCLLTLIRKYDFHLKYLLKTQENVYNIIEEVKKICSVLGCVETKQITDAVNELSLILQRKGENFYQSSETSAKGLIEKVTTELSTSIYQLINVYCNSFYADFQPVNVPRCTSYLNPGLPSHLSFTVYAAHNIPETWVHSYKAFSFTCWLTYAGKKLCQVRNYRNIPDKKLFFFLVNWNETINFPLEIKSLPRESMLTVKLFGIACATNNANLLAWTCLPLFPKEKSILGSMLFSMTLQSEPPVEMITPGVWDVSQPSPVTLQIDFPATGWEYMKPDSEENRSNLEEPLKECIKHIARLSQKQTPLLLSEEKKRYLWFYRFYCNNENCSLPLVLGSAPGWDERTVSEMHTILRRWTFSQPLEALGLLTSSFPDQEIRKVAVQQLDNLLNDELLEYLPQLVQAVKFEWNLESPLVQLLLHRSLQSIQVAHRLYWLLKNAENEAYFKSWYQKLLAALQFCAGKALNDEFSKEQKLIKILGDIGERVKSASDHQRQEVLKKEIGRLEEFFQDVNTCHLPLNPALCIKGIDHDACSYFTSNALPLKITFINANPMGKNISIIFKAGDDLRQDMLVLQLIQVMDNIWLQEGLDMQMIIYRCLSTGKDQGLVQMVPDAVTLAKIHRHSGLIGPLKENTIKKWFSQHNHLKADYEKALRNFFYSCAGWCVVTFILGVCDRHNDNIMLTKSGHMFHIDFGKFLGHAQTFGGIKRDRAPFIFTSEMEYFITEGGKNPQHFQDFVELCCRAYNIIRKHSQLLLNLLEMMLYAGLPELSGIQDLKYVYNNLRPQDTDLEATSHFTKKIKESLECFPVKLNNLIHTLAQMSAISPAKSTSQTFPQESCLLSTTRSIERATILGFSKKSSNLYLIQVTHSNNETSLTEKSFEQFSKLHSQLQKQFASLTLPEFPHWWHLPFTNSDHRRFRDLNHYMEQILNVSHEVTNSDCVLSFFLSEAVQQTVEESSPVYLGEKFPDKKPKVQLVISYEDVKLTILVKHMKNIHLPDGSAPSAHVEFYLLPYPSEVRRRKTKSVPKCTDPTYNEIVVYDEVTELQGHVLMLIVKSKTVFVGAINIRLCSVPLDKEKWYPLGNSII

[4] = target: T2, Serine/threonine-protein kinase D2 (Homo sapiens) (UniProt Q9BZL6)
T2 sequence (whole entry): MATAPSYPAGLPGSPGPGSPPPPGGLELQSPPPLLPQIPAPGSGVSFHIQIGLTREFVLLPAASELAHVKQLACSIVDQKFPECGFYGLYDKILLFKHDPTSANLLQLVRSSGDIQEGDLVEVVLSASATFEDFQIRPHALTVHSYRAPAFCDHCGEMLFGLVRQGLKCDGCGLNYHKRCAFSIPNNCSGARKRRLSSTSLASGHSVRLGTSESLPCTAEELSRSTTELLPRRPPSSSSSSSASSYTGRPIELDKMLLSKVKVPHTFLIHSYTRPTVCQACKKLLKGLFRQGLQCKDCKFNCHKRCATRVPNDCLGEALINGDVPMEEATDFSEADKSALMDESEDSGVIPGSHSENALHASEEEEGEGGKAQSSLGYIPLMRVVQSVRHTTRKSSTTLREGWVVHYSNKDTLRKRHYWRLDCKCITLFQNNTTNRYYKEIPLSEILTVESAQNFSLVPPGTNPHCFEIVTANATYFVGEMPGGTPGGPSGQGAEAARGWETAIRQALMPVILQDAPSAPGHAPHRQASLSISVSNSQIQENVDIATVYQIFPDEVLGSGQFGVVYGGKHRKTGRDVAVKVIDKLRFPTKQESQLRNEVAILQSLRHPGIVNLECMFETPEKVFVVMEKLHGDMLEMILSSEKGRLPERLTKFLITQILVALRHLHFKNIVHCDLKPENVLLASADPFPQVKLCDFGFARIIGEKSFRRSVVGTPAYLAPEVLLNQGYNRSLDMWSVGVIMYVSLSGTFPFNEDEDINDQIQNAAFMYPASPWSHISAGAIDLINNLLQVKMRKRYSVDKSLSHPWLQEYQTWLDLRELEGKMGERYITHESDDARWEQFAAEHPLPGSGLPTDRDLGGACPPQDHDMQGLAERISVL

Measured: residual activity

Sequence of Death-associated protein kinase 1 (Homo sapiens) (P53355 whole entry, looked up): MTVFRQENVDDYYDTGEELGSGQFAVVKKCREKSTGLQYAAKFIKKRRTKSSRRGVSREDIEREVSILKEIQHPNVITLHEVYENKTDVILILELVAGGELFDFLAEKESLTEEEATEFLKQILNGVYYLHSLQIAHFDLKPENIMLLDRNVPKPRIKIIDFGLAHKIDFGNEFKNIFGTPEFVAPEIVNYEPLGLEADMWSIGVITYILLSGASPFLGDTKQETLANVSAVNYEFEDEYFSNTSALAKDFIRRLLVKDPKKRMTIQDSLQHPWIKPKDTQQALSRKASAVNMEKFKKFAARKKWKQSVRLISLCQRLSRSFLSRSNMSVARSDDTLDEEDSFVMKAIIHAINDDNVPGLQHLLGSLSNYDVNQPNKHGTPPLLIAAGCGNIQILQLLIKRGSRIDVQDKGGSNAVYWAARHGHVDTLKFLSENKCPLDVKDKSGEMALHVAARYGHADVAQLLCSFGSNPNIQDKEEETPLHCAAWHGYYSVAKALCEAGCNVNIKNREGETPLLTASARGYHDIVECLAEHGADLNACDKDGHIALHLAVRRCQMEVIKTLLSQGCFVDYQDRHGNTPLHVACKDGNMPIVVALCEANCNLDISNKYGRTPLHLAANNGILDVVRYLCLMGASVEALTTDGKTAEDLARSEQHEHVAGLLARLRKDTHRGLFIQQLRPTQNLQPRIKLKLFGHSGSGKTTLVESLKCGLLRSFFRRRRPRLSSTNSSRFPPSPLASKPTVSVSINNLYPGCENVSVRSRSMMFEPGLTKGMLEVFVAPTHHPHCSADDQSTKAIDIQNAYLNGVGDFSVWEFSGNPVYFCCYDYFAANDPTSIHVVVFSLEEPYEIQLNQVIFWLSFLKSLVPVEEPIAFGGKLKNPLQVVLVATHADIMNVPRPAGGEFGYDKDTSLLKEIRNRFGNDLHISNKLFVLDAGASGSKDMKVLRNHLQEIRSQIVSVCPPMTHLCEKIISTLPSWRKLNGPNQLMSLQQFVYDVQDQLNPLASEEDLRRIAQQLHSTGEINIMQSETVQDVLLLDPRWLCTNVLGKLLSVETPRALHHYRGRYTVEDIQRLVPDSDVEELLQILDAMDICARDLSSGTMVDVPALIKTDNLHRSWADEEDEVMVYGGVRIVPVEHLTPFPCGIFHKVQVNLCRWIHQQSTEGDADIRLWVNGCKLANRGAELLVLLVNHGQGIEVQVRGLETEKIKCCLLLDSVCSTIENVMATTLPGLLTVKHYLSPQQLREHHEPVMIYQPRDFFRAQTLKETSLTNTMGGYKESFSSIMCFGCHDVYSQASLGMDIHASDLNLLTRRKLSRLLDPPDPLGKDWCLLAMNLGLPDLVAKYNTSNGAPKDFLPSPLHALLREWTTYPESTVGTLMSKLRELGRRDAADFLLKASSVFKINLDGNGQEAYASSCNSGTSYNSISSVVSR

Cc1nc(C2CCN(C(=O)c3ccc(OC(F)(F)F)cc3N)CC2)c2ncc(N3CCN(C)CC3)cc2n1 [BAY-693]
inactive: [1] 95% | [2] 81% | [3] 100% | [4] 92%

CN1CCN(c2cnc3c(C4CCN(C(=O)c5ccc(OC(F)(F)F)cc5N)CC4)ncnc3c2)CC1 [BAY-885]
inactive: [1] 100% | [2] 79% | [3] 100% | [4] 100%
